Measured values published in ChEMBL document CHEMBL4706559, “New indolylarylsulfone non-nucleoside reverse transcriptase inhibitors show low nanomolar inhibition of single and double HIV-1 mutant strains” (Eur J Med Chem, 2020).

Key:
[1] = system: Human immunodeficiency virus 1; assay: Antiviral activity against HIV-1 NL4-3 infected in human MT-4 cells assessed as virus induced cytopathic effect by MTT assay; assay type: functional, organism-based; conditions: Human immunodeficiency virus 1, NL4-3, MT4
[2] = Selectivity ratio of CC50 for human MT4 cells to EC50 for antiviral activity against HIV-1 NL4-3 infected in human MT4 cells; assay type: toxicity, cell-based; conditions: read-out: Ratio CC50/EC50
[3] = system: Human immunodeficiency virus 1; assay: Antiviral activity against HIV1 harboring RT Y181C mutant infected in human MT4 cells assessed as protection against virus-induced cytopathic effect by MTT assay; assay type: functional, organism-based; conditions: Human immunodeficiency virus 1, MT4
[4] = system: Human immunodeficiency virus 1; assay: Antiviral activity against HIV1 harboring RT K103N/Y181C double mutant infected in human MT4 cells assessed as protection against virus-induced cytopathic effect by MTT assay; assay type: functional, organism-based; conditions: Human immunodeficiency virus 1, MT4
[5] = system: Human immunodeficiency virus 1; assay: Resistance index, ratio of EC50 for antiviral activity against HIV1 harboring RT K103N/Y181C double mutant infected in human MT4 cells to EC50 for antiviral activity against HIV1 NL4-3 infected in human MT4 cells; assay type: functional
[6] = system: Human immunodeficiency virus 1; assay: Antiviral activity against HIV1 harboring RT K103N mutant infected in human MT4 cells assessed as protection against virus-induced cytopathic effect by MTT assay; assay type: functional, organism-based; conditions: Human immunodeficiency virus 1, MT4
[7] = system: Human immunodeficiency virus 1; assay: Resistance index, ratio of EC50 for antiviral activity against HIV1 harboring RT Y181C mutant infected in human MT4 cells to EC50 for antiviral activity against HIV1 NL4-3 infected in human MT4 cells; assay type: functional
[8] = Cytotoxicity against human MT-4 cells assessed as reduction in cell viability by MTT assay; assay type: cell-based, MT4
[9] = system: Human immunodeficiency virus 1; assay: Antiviral activity against HIV1 harboring RT Y188L mutant infected in human MT4 cells assessed as protection against virus-induced cytopathic effect by MTT assay; assay type: functional, organism-based; conditions: Human immunodeficiency virus 1, MT4
[10] = system: Human immunodeficiency virus 1; assay: Resistance index, ratio of EC50 for antiviral activity against HIV1 harboring RT Y188L mutant infected in human MT4 cells to EC50 for antiviral activity against HIV1 NL4-3 infected in human MT4 cells; assay type: functional
[11] = Inhibition of RNA-dependent DNA polymerase activity of recombinant HIV-1 p66/p51 reverse transcriptase Y188L mutant assessed as inhibition of [3H]dTTP incorporation using poly(rA)/oligo(dT) as templates incubated for 15 mins by MicroBeta scintillation counting method; design: species or system Human immunodeficiency virus 1
[12] = Inhibition of RNA-dependent DNA polymerase activity of recombinant HIV-1 p66/p51 reverse transcriptase K103N/Y181C mutant assessed as inhibition of [3H]dTTP incorporation using poly(rA)/oligo(dT) as templates incubated for 15 mins by MicroBeta scintillation counting method; design: species or system Human immunodeficiency virus 1
[13] = system: Human immunodeficiency virus 1; assay: Resistance index, ratio of EC50 for antiviral activity against HIV1 harboring RT K103N mutant infected in human MT4 cells to EC50 for antiviral activity against HIV1 NL4-3 infected in human MT4 cells; assay type: functional
[14] = target: Human immunodeficiency virus type 1 reverse transcriptase (Human immunodeficiency virus 1, UniProt Q72547, K103N); assay: Inhibition of RNA-dependent DNA polymerase activity of recombinant HIV-1 p66/p51 reverse transcriptase K103N mutant assessed as inhibition of [3H]dTTP incorporation using poly(rA)/oligo(dT) as templates incubated for 15 mins by MicroBeta scintillation counting method
[15] = target: Human immunodeficiency virus type 1 reverse transcriptase (Human immunodeficiency virus 1, UniProt Q72547); assay: Inhibition of RNA-dependent DNA polymerase activity of wild type recombinant HIV-1 His-tagged p66/p51 reverse transcriptase assessed as inhibition of [3H]dTTP incorporation using poly(rA)/oligo(dT) as templates incubated for 15 mins by MicroBeta scintillation counting method

Structure (SMILES) | EC50 [1] | selectivity ratio [2] | EC50 [3] | EC50 [4] | Ratio EC50 [5] | EC50 [6] | Ratio EC50 [7] | CC50 [8] | EC50 [9] | Ratio EC50 [10] | IC50 [11] | IC50 [12] | Ratio EC50 [13] | IC50 [14] | IC50 [15]
Cc1cc(C)cc(S(=O)(=O)c2c(C(=O)Nc3ccc(CO)cc3)[nH]c3ccc(Cl)cc23)c1 | < 0.7 nM | > 56600 | 22 nM | 19500 nM | >27904 | < 0.7 nM | >31 | 39600 nM |  |  |  |  |  |  | 
Cc1cc(C)cc(S(=O)(=O)c2c(C(=O)Nc3cccc(O)c3)[nH]c3ccc(Cl)cc23)c1 | < 0.7 nM | > 35200 | 44 nM | 6090 nM | >8698 | < 0.7 nM | >62 | 24600 nM | 455 nM | >650 |  |  |  |  | 
Cc1cc(C#N)cc(C)c1Oc1nc(Nc2ccc(C#N)cc2)nc(N)c1Br [ETRAVIRINE] | 16.1 nM |  | 18 nM | 4.6 nM |  | 0.7 nM |  | > 23000 nM | 16 nM |  | 164 nM | 97 nM |  |  | 
Cc1cc(C)cc(S(=O)(=O)c2c(C(N)=O)[nH]c3ccc(Cl)cc23)c1 |  |  |  | 650 nM |  |  |  |  |  |  |  |  |  |  | 
O=C1Nc2ccc(Cl)cc2[C@@](C#CC2CC2)(C(F)(F)F)O1 [EFAVIRENZ] |  |  |  | > 317 nM |  |  |  | > 15800 nM |  |  |  |  |  |  | 
NC(=O)c1[nH]c2ccc(Cl)cc2c1S(=O)(=O)c1ccccc1 [L-737126] |  |  |  | 8000 nM |  |  |  |  |  |  |  |  |  |  | 
COc1cc(CNC(=O)c2[nH]c3ccc(Cl)cc3c2S(=O)(=O)c2cc(C)cc(C)c2)ccc1O | < 0.6 nM | > 47800 | 2 nM | 1120 nM | 1871 | < 0.6 nM | 3.3 | 28700 nM | 220 nM | 367 |  |  |  |  | 
Cc1cc(C)cc(S(=O)(=O)c2c(C(=O)NCC(=O)NCc3cccc(O)c3)[nH]c3ccc(Cl)cc23)c1 | < 0.6 nM | > 79200 | 7.6 nM | 3560 nM | >5925 | 437 nM | >13 | > 47500 nM | 3950 nM | >6590 |  |  | >728 |  | 
Cc1cc(C)cc(S(=O)(=O)c2c(C(=O)NCc3ccc(O)cc3)[nH]c3ccc(Cl)cc23)c1 | < 0.7 nM | > 8930 | < 0.7 nM | 704 nM | >1006 | < 0.7 nM |  | 6250 nM | 661 nM | >944 | 50 nM | 628 nM |  | 45 nM | 61 nM
Cc1cc(C)cc(S(=O)(=O)c2c(C(=O)NCN3CCCC3)[nH]c3ccc(Cl)cc23)c1 |  |  |  | 300 nM |  |  |  |  |  |  |  |  |  |  | 
Cc1cc(C)cc(S(=O)(=O)c2c(C(=O)NCc3cc(O)ncn3)[nH]c3ccc(Cl)cc23)c1 | < 0.7 nM | > 75800 | 0.7 nM | 14300 nM | >20385 | < 0.7 nM |  | > 53100 nM | 106 nM | >151 |  |  |  |  | 
Cc1cc(C)cc(S(=O)(=O)c2c(C(=O)NC(C)c3cccc(O)c3)[nH]c3ccc(Cl)cc23)c1 (centres undefined) | < 0.7 nM | > 22800 | 10 nM | 600 nM | 857 | < 0.7 nM | 14 | 16000 nM | 166 nM | 237 |  |  |  |  | 
